Assay results taken from US11560373B2, “Compounds and their use as PDE4 activators” (Mironid Limited, priority 2018, dated 2023).

What was measured:
[1] = biological target: T1, PDE4B1 (Homo sapiens, UniProt Q07343); test: PDE assay, [3H]cAMP hydrolysis by HEK-PDE4B1 cell lysate cytosol fraction; format: biochemical; details: mean % increase in counts over basal activity
T1 construct: stably expressed the full-length human PDE4D5, PDE4B1 and PDE4A4 long isoforms; made in house

[2] = biological target: T2, PDE4B2 (Homo sapiens, UniProt Q07343); test: PDE assay, [3H]cAMP hydrolysis by HEK-PDE4B2 cell lysate cytosol fraction (short form); format: biochemical; details: mean % increase in counts over basal activity
T2 construct: the full length human PDE4B2 short isoform; made in house
Experimental: (§1) HEK 293 cells were transfected with pDEST™ PDE4 expression vectors using Lipofectamine LTX/Plus reagent (Invitrogen) as outlined by the manufacturer and clonal isolates expanded to obtain cell lines that stably expressed the full-length human PDE4D5, PDE4B1 and PDE4A4 long isoforms and the full length human PDE4B2 short isoform. These were called the HEK-PDE4D5, HEK-PDE4B1, HEK-PDE4A4 and HEK-PDE4B2 cell lines, respectively.
(§2) HEK-PDE4D5 cells were seeded out in 100 mm plates and incubated at 37° C. in an atmosphere of 5% CO2, 95% air. Cell lysates were prepared using KHEM buffer [50 mM KCl, 10 mM EGTA, 50 mM HEPES (pH 7.2), 1.92 mM MgCl2].
(§3) To prepare the cell lysates, the 100 mm plates containing the cells were placed on ice and washed with ice-cold PBS (phosphate buffered saline, pH 7.4). KHEM buffer (500 μl) was added to the cells. Cells were then scraped off the plate and triturated using a needle (BD Microlance™ 0.8, 40 mm). The lysed cells were then centrifuged at 2000 rpm for 10 minutes to remove cell debris and the supernatant (cell lysate containing recombinant PDE4D5) was transferred to a fresh tube and kept on ice.
(§4) The cell lysate containing recombinant PDE4D5 was transferred into a centrifuge tube and placed into an ultracentrifuge (BECKMAN COULTER) and spun at high speed (100,000 g) for 30 minutes at 4° C. The cytosol fraction was then collected and its protein amount determined using a BCA protein assay.
(§5) PDE assays were performed in thin walled V-bottomed 96-well plates. The assays were performed at a final concentration of 10 mM Tris/5 mM MgCl2 plus PDE4D5 cell lysate cytosol fraction, containing over-expressed PDE4D5, with and without test compound. The lysate/compound mix were incubated together for 15 min at room temperature on an orbital shaker prior to addition of [^3H] cAMP (final concentration 1 μM [^3H] cAMP; Perkin Elmer) to a final volume of 50 μl per reaction. The reactions were then incubated for 10 minutes at 30° C., terminated by heating for 2 min at 95° C. and allowed to cool. Snake venom (12.5 μl of 1 mg/ml; Crotalus atrox, Sigma) was then added and the plates were agitated and incubated for a further 15 minutes at 30° C. Dowex ion exchange resin (Sigma, chloride form, 200-400 mesh; 200 μl; prepared as a 1:1 Dowex: water stock, thoroughly re-suspended and diluted 2:1 with ethanol) was then added to each well and the plates incubated for 15 min at room temperature on an orbital shaker ensuring sufficient agitation for resin suspension (550 RPM). The reaction mixture was then transferred to a 96 well filter plate (Millipore; […] pore size) and filtered into a receiving 96-well plate to remove the dowex suspension. 30 μL of the filtered solution was then transferred to the wells of an Opti-plate (Perkin Elmer) 96 well assay plate and 120 μl of Microscint 40 scintillation fluid was added. The plate was then placed on an orbital shaker for 10 min at high speed (900 RPM) to mix the sample with scintillation fluid prior to quantitation using a plate based scintillation counter (Top-Count).
(§6) The % increase in counts in the presence of test compound at a particular concentration indicates the % increase in enzyme activity at that concentration.

[3] = system: MDCK cells; test: Inhibition of in vitro cyst formation in 3D culture of MDCK cells; format: cell-based, canine; details: 300 nM prostaglandin E2, 10 days; % Cyst Volume compared to vehicle
Text: In this study, the well-established three-dimensional (3D) MDCK cell model is used to investigate the effects of PDE4 long form activators on the formation of kidney cysts and evaluate their potential in the treatment of polycystic kidney diseases. 3D cysts are generated based on the method of Mao et al. (Mao, Z., Streets, A. J., Ong, A. C. M. Am. J. Physiol. Renal Physiol. 300(6): F1375-F1384, 2011), with some modifications.
Type 1 collagen (Invitrogen) is first prepared on ice by neutralising an acidic stock solution (3 mg/ml) with 17 mM NaOH and diluting it to 1 mg/ml with DMEM, supplemented with 2% (v/v) FBS, 2 mM L-glutamine, 1,000 U penicillin and 1,000 μg streptomycin (DMEM-2% FBS). […]
Phase-contrast images are obtained on the Motic microscope (×4 magnification). 8 images are taken per condition and the cyst diameter measured (up to 150 cyst measurements per well). Cyst spheroid volume is calculated using the formula 4/3πr^3 where r is the radius of the spheroid. A mean cyst volume is then calculated per well. The mean cyst volume and standard deviation between the duplicate wells is then calculated and expressed as a % Cyst Volume compared to the vehicle only (DMSO+300 nM PGE2) control wells. […]

[4] = system: MDCK cells; test: Reduction of intracellular cAMP levels in forskolin stimulated MDCK cells; format: cell-based, canine; details: compound 40 min prior to forskolin (1 μM) for 20 min
Experimental: MDCK cells were seeded at 100,000 cells per well, and left to adhere overnight. The cells were then treated with the test compound for 40 minutes, prior to stimulation with forskolin (1 μM, Sigma) for 20 minutes. Media was aspirated, and hydrochloric acid (0.1 M) was added to lyse the cells. The cAMP assay (Enzo Life Sciences) was performed according to the manufacturer's instructions.

[5] = biological target: T3, PDE4D5 (Homo sapiens, UniProt Q08499); test: PDE assay, [3H]cAMP hydrolysis by HEK-PDE4D5 cell lysate cytosol fraction; format: biochemical; details: 30 μM; mean % increase in counts over basal activity
T3 construct: stably expressed the full-length human PDE4D5, PDE4B1 and PDE4A4 long isoforms; made in house
Experimental: as §1, §2, §3, §4, §5, §6

[6] = biological target: T4, PDE4A4 (Homo sapiens, UniProt P27815); test: PDE assay, [3H]cAMP hydrolysis by HEK-PDE4A4 cell lysate cytosol fraction; format: biochemical; details: mean % increase in counts over basal activity
T4 construct: stably expressed the full-length human PDE4D5, PDE4B1 and PDE4A4 long isoforms; made in house
T4 sequence (P27815 whole entry, canonical isoform): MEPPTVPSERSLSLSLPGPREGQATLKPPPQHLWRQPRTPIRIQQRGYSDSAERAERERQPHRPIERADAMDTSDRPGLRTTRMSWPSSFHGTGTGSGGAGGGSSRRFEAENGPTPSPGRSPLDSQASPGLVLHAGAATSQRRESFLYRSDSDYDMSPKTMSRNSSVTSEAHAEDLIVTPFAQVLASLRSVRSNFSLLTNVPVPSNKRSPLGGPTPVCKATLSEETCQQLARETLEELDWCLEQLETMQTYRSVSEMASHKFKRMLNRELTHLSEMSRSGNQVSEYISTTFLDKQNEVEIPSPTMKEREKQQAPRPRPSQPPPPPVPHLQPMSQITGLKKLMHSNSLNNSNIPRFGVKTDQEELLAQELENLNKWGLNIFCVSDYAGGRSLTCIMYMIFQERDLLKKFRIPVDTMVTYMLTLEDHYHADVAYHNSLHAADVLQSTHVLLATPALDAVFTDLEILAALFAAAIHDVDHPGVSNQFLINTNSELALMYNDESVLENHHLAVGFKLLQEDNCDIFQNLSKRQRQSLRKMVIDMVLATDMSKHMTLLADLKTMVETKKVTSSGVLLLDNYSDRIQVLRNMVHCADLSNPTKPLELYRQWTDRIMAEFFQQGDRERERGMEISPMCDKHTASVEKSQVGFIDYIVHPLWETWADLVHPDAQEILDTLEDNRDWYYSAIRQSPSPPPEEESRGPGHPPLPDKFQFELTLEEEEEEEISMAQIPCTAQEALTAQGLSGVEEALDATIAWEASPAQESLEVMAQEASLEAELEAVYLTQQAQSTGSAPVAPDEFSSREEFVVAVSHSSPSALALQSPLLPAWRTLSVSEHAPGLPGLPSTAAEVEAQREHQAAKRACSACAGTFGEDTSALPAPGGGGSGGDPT

T3 sequence (Q08499 1-745 isoform Q08499-6): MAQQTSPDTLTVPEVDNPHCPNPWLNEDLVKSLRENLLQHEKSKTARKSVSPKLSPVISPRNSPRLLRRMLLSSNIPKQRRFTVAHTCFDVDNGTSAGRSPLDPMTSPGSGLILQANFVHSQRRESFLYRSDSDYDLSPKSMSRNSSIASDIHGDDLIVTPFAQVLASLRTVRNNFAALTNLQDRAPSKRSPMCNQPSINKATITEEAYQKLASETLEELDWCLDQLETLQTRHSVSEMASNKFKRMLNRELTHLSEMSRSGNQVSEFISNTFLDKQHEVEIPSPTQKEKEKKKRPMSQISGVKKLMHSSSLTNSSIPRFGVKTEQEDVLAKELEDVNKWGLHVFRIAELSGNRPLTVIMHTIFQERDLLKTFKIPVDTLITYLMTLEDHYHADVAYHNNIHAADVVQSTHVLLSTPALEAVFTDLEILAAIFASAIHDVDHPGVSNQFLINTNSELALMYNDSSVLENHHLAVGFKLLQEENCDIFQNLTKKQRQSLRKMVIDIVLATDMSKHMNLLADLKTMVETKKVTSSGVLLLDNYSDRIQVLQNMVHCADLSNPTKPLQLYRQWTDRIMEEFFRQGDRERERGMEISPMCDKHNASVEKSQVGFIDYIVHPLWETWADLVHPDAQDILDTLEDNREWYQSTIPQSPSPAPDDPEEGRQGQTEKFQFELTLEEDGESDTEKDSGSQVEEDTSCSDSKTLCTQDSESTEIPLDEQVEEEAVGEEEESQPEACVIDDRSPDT
T2 sequence (Q07343 1-564 isoform Q07343-2): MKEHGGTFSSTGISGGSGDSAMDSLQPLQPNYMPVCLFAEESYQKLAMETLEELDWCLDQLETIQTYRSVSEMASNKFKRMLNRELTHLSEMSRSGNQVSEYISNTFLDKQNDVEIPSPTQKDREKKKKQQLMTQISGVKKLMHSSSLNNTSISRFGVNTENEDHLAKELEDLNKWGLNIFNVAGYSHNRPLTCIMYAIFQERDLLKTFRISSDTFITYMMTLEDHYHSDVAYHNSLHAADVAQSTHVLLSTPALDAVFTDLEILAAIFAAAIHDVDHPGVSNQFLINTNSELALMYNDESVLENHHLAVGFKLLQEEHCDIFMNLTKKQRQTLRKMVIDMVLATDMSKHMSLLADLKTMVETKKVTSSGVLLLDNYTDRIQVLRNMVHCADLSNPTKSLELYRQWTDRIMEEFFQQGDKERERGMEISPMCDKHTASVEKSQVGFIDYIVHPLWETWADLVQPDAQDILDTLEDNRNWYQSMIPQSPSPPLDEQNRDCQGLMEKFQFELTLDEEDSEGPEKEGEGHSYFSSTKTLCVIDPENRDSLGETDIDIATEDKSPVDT
T1 sequence (Q07343 whole entry, canonical isoform): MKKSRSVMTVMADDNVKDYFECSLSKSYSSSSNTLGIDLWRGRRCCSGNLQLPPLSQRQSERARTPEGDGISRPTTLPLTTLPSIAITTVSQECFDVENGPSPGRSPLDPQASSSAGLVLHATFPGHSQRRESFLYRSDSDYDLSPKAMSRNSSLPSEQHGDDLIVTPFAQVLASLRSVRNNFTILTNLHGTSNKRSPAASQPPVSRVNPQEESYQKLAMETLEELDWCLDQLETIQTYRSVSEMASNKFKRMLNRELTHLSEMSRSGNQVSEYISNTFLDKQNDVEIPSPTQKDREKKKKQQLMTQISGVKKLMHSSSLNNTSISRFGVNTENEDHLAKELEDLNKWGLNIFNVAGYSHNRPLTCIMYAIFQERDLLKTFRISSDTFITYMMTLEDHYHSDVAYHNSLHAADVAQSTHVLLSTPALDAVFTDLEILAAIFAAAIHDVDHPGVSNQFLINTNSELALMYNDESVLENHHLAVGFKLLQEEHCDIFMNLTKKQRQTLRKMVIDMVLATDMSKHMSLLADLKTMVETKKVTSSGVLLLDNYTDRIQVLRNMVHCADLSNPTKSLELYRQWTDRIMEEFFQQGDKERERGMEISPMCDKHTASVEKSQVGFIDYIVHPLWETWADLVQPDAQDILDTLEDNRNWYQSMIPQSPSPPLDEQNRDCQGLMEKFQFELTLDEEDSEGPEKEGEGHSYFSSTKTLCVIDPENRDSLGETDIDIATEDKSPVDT

| SMILES | % increase in PDE4B1 activity at 30 μM [1] | % increase in PDE4B2 activity at 30 μM [2] | cyst formation in 3D culture of MDCK cells (FIG. 3) [3] | intracellular cAMP levels in MDCK cells (FIG. 2) [4] | activation at 30 µM [5] | % increase in PDE4A4 activity at 30 μM [6] |
| --- | --- | --- | --- | --- | --- | --- |
| CCn1nc(-c2ccc(Cl)c(F)c2)nc1CC(=O)NCc1cccc(F)c1 [Example 1, 2-[3-(4-Chloro-3-fluorophenyl)-1-ethyl-1H-1,2,4-triazol-5-yl]-N-(3-fluorobenzyl) acetamide] | 79.1% | – | – | – | – | – |
| CCn1nc(-c2ccc(Cl)c(F)c2)nc1CC(=O)NCc1cccc(OC)c1 [Example 2, 2-[3-(4-Chloro-3-fluorophenyl)-1-ethyl-1H-1,2,4-triazol-5-yl]-N-(3-methoxybenzyl) acetamide] | 99.4% | – | – | – | – | – |
| CCn1nc(-c2ccc(Cl)c(F)c2)nc1CC(=O)NCc1cc(C)nc(C)c1 [Example 3, 2-[3-(4-Chloro-3-fluorophenyl)-1-ethyl-1H-1,2,4-triazol-5-yl]-N-((2,6-dimethylpyridin-4-yl)methyl)acetamide] | – | −10.9% | inhibition of cyst formation | reduction in intracellular cAMP levels | 73.2% | – |
| COCCn1nc(-c2ccc(Cl)c(F)c2)nc1CC(=O)NCc1cc(Cl)cc(Cl)c1 [Example 22, 2-[3-(4-Chloro-3-fluorophenyl)-1-(2-methoxyethyl)-1H-1,2,4-triazol-5-yl]-N-[(3,5-dichlorophenyl)methyl]acetamide] | – | −2.9% | – | – | 99.9% | 92.5% |
| CCn1nc(-c2ccc(Cl)c(OC(C)C)c2)nc1CC(=O)NCc1cc(Cl)cc(Cl)c1 [Example 34, 2-[3-(4-Chloro-3-isopropyloxyphenyl)-1-ethyl-1H-1,2,4-triazol-5-yl]-N-[(3,5-dichlorophenyl)methyl]acetamide] | – | −4.4% | – | – | 108% | 75.5% |
